Assay [1] deals with Neuronal acetylcholine receptor subunit alpha-7 (Rattus norvegicus, UniProt Q05941). Description: Binding affinity towards Nicotinic acetylcholine receptor alpha-7 using [3H]-MLA as radioligand.
Assay [2] deals with Neuronal acetylcholine receptor; alpha4/beta2 (Rattus norvegicus, UniProt P09483+P12390). The assay can be described thus: Binding affinity towards Nicotinic acetylcholine receptor alpha4-beta2 using [3H]nicotine as radioligand. The assay is classed as protein-complex assay.
Assay [3] deals with Neuronal acetylcholine receptor alpha3/beta4 (Homo sapiens). Description: Binding affinity towards alpha3-beta4 subtype of neuronal nicotinic acetylcholine receptor (nAChR) using [3H]epibatidine as radioligand.

Results on 6 compounds are retold here after ChEMBL document CHEMBL1136173, “Synthesis and nicotinic binding of novel phenyl derivatives of UB-165. Identifying factors associated with alpha7 selectivity” (Bioorg Med Chem Lett, 2003).

For orientation: Ki means the dissociation constant of the complex between target and ligand, obtained from inhibition or displacement. High values mean a looser hold on the target, low ones a stronger hold on the target.

Neuronal acetylcholine receptor; alpha4/beta2, sequence (P09483 whole entry): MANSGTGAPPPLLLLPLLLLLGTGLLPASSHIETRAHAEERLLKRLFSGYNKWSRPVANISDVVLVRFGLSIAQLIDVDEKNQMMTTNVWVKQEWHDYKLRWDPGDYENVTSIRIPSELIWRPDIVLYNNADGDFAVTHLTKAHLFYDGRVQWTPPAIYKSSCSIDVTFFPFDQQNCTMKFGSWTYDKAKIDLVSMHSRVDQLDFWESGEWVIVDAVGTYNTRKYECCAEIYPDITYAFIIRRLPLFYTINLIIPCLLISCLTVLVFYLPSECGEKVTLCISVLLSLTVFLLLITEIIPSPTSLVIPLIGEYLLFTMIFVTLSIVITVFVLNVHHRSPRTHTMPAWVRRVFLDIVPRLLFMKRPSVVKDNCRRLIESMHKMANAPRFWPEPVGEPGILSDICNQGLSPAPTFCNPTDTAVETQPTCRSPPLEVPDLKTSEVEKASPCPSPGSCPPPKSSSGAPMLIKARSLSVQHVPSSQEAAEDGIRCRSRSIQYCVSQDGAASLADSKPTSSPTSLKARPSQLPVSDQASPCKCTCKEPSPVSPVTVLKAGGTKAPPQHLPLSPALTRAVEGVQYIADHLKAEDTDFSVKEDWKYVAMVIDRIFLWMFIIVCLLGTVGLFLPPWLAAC
Neuronal acetylcholine receptor; alpha4/beta2, sequence (P12390 whole entry): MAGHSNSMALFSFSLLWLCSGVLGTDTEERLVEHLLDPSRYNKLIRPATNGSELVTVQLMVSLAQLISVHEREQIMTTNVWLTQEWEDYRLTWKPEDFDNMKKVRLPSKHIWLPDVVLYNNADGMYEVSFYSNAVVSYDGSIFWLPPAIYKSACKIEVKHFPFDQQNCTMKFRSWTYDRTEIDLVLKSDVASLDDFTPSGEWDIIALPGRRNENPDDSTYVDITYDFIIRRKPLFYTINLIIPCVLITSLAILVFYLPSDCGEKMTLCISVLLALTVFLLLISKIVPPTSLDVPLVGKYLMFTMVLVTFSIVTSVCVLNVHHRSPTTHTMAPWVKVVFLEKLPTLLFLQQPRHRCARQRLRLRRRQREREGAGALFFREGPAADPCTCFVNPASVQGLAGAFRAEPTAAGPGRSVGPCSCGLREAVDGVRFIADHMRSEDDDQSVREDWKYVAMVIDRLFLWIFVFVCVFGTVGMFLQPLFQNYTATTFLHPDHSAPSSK
Neuronal acetylcholine receptor subunit alpha-7, sequence (Q05941 whole entry): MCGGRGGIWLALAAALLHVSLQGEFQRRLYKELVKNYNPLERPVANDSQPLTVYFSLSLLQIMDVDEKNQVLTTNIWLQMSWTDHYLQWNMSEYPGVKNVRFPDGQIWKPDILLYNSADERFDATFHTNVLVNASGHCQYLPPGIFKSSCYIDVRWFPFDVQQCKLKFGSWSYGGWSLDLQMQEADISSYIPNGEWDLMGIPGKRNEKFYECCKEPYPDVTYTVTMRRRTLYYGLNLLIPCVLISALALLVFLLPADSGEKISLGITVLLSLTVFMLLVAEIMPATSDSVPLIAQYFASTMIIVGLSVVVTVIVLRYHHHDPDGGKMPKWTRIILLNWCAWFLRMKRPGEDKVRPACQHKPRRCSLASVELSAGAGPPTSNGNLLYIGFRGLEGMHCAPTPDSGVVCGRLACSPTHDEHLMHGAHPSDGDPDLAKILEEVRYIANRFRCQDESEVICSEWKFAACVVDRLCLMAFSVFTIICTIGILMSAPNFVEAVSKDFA

`Clc1ccc(C2=CCC[C@@H]3CC[C@H]2N3)cn1` registered a Ki in assay [1] of 2760 nM.

In the case of `C1=C(c2ccc(-c3ccccc3)nc2)C2CCC(CC1)N2` (centres undefined), the Ki was 1310 nM in assay [1] and 21.4 nM in assay [2].

For the compound `C1=C(c2cccnc2-c2ccccc2)C2CCC(CC1)N2` (centres undefined), the Ki in assay [1], in assay [2] and in assay [3] was above 50000 nM in each case.

As for `C1=C(c2cccnc2)C2CCC(CC1)N2` (centres undefined), the Ki in assay [1] is 89 nM; in assay [2] it was 0.43 nM.

Regarding `C1=C(c2cnccc2-c2ccccc2)C2CCC(CC1)N2` (centres undefined), the Ki turned out to be 927 nM in assay [1], 234 nM in assay [2] and 1990 nM in assay [3].

Take `C1=C(c2cncc(-c3ccccc3)c2)C2CCC(CC1)N2` (centres undefined): the Ki in assay [1] is 16000 nM; in assay [2], 4.8 nM; in assay [3] it was 468 nM.
